Laboratory results taken from patent publication US6403563B1, “Antitumor composition containing a synergistic combination of an anthracycline derivative with a camptothecin derivate” (Pharmacia & Upjohn S.p.A., priority 1998, dated 2002).
Several values for one entry are separate records, joined by “and”; a condition that tells them apart may be missing. Identical values can stand only once.

What was measured:
[1] = system: disseminated L1210 murine leukemia; experiment: Antileukemic activity against disseminated L1210 leukemia in mice; assay type: in vivo
Text: For these experiments Ia was solubilized in [Cremophor®/EtOH=6.5:3.5]/[normal saline]=20/80 v/v, while CPT-11 was solubilized in water.

[2] = system: intracranially implanted P388 tumor cells; experiment: Activity against intracranially transplanted P388 murine leukemia; assay type: in vivo, mice
Method: Brain tumors/metastases are generally unresponsive largely because cytotoxic drugs fail to cross the blood brain barrier. […] The compound was administered i.v. on days 1,5,9. Results reported in Tab.

[3] = Crossing of the blood brain barrier
[4] = Ia alone 2.9 mg/kg/day iv day +3
[5] = Ia alone 3.8 mg/kg/day iv day +3
[6] = CPT-11 alone 20 mg/kg/day iv days +1,2

Compound | ILS % (increase in life span) [1, 4] | LTS (Long Term Survivors >60 days) [1, 4] | Tox (number of toxic deaths/number of mice) [1, 4] | ILS % (increase in life span) [1, 5] | LTS (Long Term Survivors >60 days) [1, 5] | Tox (number of toxic deaths/number of mice) [1, 5] | Tox (number of toxic deaths/number of mice) ([2]; Ia 2.1 mg/kg/day i.v. days 1, 5, 9) | ILS % (increase in life span) ([2]; Ia 2.1 mg/kg/day i.v. days 1, 5, 9, P388 10^4/mouse intracranially day 0) | Tox (number of toxic deaths/number of mice) ([2]; Ia 2.7 mg/kg/day i.v. days 1, 5, 9) | ILS % (increase in life span) ([2]; Ia 2.7 mg/kg/day i.v. days 1, 5, 9 (optimal cumulative dose 8.1 mg/kg)) | crossing of the blood brain barrier [3] | LTS (Long Term Survivors >60 days) [1, 6] | Tox (number of toxic deaths/number of mice) [1, 6] | ILS % (increase in life span) ([1]; CPT-11 alone 20 mg/kg/day iv days +1,2, L1210 10^5/mouse iv day 0)
CC(=O)C1(O)Cc2c(O)c3c(c(O)c2C(OC2CC(N4CC4)C(OS(C)(=O)=O)C(C)O2)C1)C(=O)c1ccccc1C3=O (centres unmarked) [Ia, 4-demethoxy-3′-deamino-3′-aziridinyl-4′-methansulfonyl daunorubicin] | 92% | 0/10 | without toxicity and 0/10 | 108% | 0/10 | without toxicity and 0/10 | 0/20 | 44% | 1/20 | 46% | crosses the blood brain barrier | – | – | –
CCc1c2c(nc3ccc(OC(=O)N4CCC(N5CCCCC5)CC4)cc13)-c1cc3c(c(=O)n1C2)COC(=O)[C@]3(O)CC [CPT-11, Irinotecan, reference compound] | – | – | – | – | – | – | – | – | – | – | – | 1/10 | without toxicity and 0/10 | 100%
